# Target: Macrophage colony-stimulating factor 1 receptor (Homo sapiens, UniProt P07333)
# Test: Inhibition of human CSF1R tyrosine kinase domain (538 to 972 residues) using Poly(Glu, Tyr)-biotinylated peptide as substrate preincubated for 5 mins followed by substrate addition and measured after 10 mins by HTRF assay
# Sequence of Macrophage colony-stimulating factor 1 receptor (P07333 whole entry, the tested form may be a part): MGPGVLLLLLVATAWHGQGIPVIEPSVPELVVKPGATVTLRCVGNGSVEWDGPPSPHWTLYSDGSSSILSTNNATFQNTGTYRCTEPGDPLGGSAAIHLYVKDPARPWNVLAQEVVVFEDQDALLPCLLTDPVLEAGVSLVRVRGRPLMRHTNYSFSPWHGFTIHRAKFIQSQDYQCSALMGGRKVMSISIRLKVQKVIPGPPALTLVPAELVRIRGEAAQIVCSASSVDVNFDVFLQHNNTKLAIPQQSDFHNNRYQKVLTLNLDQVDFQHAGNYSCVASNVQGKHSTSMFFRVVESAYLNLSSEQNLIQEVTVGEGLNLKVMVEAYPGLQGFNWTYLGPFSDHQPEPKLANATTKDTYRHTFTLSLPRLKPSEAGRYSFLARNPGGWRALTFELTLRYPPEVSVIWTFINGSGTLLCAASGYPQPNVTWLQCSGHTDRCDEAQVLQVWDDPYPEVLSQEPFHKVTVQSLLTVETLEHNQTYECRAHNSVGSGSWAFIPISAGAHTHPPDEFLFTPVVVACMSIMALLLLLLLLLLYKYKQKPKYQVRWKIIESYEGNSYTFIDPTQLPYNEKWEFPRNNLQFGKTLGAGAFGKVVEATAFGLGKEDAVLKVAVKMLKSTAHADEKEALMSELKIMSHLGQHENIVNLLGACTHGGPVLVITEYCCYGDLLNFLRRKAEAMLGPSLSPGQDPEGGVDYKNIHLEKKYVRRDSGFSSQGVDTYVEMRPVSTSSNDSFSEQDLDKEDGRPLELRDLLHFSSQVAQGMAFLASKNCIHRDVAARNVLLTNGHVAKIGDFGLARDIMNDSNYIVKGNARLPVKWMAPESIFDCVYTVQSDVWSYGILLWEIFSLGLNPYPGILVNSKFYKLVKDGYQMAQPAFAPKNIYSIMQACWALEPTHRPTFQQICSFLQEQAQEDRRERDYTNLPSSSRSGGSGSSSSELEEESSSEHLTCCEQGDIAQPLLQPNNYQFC
row,IC50,Compound
1,> 3 µM,CCc1ccc(COc2ccc(C3CN(Cc4ccccn4)C3)cc2OC)cc1
2,> 3 µM,CCc1ccc(COc2ccc(C3CN(Cc4cccnc4)C3)cc2OC)cc1
3,> 3 µM,CCc1ccc(COc2ccc(C3CN(c4ccccn4)C3)cc2OC)cc1

# Reference: ChEMBL document CHEMBL4308862, “Discovery of a novel azetidine scaffold for colony stimulating factor-1 receptor (CSF-1R) Type II inhibitors by the use of docking models” (Bioorg Med Chem Lett, 2019)
